Literature values in patent publication US20180369425A1, “LINKED AND OTHER pH-TRIGGERED COMPOUNDS” (priority 2017, published 2018).

How the values were obtained:
HeLa cells = settings: two hours, up to 2 μM; cited from earlier work
[1] = solvents listed; cited from earlier work

Q: Which “cell death with amanitin alone” value (HeLa cells) does the source give for amanitin here?
A: does not induce cell death

Q: For C#CCNC(=O)CCCCC[N+]1=C(/C=C/C=C/C=C/C=C2\N(CCCCS(=O)(=O)[O-])c3ccc4ccccc4c3C2(C)C)C(C)(C)c2c1ccc1ccccc21 [ICG-alkyne], which Solubility [1] is on record?
A: DMSO, DMF, Acetonitrile, Methanol
